Laboratory results reported in PMC7597670 (Bioorganic & medicinal chemistry letters, 2010).

Tests used:
[1] = Pharmacokinetics after single oral and intravenous administration in rats; conditions: for AUC / Cmax: rat, plasma, po, 10 mg/kg; for BA: rats, 10 mg/kg po vs 3 mg/kg iv
human CCR5 = human CCR5 (Homo sapiens, UniProt P51681); type: cell-based; conditions: versus the other three stereoisomers of the hydroxylated analog of 1
HIV-1MM (R5MDR) = conditions: read-out: Anti-HIV-1 activity IC50 HIV-1MM (R5MDR); inhibition of HIV p24 antigen expression in PBMC; multidrug-resistant
HIV-1Ba-L (R5) = experiment: Anti-HIV-1 activity: inhibition of HIV p24 antigen expression in PBMC, HIV-1Ba-L; type: cell-based; conditions: read-out: Anti-HIV-1 activity IC50 HIV-1Ba-L (R5)

Chain of human CCR5 (P51681 whole entry): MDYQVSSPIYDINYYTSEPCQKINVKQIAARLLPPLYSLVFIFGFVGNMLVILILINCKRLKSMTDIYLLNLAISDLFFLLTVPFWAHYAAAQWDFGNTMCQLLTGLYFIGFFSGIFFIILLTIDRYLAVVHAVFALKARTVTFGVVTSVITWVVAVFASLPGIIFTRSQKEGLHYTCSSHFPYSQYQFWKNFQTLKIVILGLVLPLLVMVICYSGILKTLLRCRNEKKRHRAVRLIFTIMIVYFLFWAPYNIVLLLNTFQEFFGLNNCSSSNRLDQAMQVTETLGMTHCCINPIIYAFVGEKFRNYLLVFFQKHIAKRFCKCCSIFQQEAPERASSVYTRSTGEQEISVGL

Compound	AUC [1] [ng·h/mL]	Cmax [1] [ng/mL]	BA [1] [%]	other results
CCCCN1C(=O)C(CC2CCCCC2)NC(=O)C12CCN(Cc1ccc(Oc3ccccc3)cc1)CC2.Cl (stereo not drawn) [Compound 2]	24.8	5.6	1.9	
CCCCN1C(=O)[C@@H]([C@H](O)C(C)C)NC(=O)C12CCN(Cc1ccc(Oc3ccccc3)cc1)CC2.Cl [Compound 3]				fold higher potency than the other isomers in Ca assay (human CCR5): 4.5-12 fold
CCCCN1C(=O)C(CC(C)C)NC(=O)C12CCN(Cc1ccc(Oc3ccccc3)cc1)CC2.Cl (stereo not drawn) [Compound 1]	96.7	33.3		
SCH-351125				IC50 (HIV-1MM (R5MDR)): 3 ± 0.5 nM; IC50 (HIV-1Ba-L (R5)): 4 ± 2 nM
CCCCN1C(=O)[C@H](CC2CCCCC2)NC(=O)C12CCN(Cc1ccc(Oc3ccc(C(=O)O)cc3)cc1)CC2.Cl [Compound 5]			34	
